Results as given in patent US10765114B2, “4-amino-6-(pyridyl and 2-substitutedphenyl)-picolinates and 6-amino-2-(pyridyl and 2-substitutedphenyl)-pyrimidine-4-carboxylates and their use as herbicides” (Dow AgroSciences LLC, priority 2013, dated 2020).

Tests used:
Assay in all cases: Post-Emergent Test III (Wheat and Barley)
SASKR (Russian thistle) = type: in vivo, Salsola tragus; conditions: for Visual Growth Reduction (%) 21 Days After Application, SASKR: SASKR Russian thistle (Salsola iberica), post-emergent; for GR50, SASKR: growth reduction of 50%; for GR50, SASKR / GR80, SASKR / GR90, SASKR: probit analysis, 21 days; for GR80, SASKR: growth reduction of 80%; for GR90, SASKR: growth reduction of 90%
Method: (§1) Seeds of the desired test plant species were planted in Sun Gro MetroMix® 306 planting mixture, which typically has a pH of 6.0 to 6.8 and an organic matter content of about 30 percent, in plastic pots with a surface area of 103.2 square centimeters (cm^2). When required to ensure good germination and healthy plants, a fungicide treatment and/or other chemical or physical treatment was applied. The plants were grown for 7-36 days in a greenhouse with an approximate 14 h photoperiod which was maintained at about 18° C. during the day and 17° C. during the night. Nutrients and water were added on a regular basis and supplemental lighting was provided with overhead metal halide 1000-Watt lamps as necessary. The plants were employed for testing when they reached the second or third true leaf stage.
(§2) A weighed amount, determined by the highest rate to be tested, of each test compound was placed in a 25 mL glass vial and was dissolved in 4 mL of a 97:3 v/v mixture of acetone and DMSO to obtain concentrated stock solutions. […] The concentrated stock solutions obtained were diluted with 20 mL of an aqueous mixture containing acetone, water, isopropyl alcohol, DMSO, Agri-Dex crop oil concentrate, and X-77 surfactant in a 48:39:10:1.5:1.5:0.02 v/v ratio to obtain spray solutions containing the highest application rates. Additional application rates were obtained by serial dilution of 12 mL of the high rate solution into a solution containing 2 mL of 97:3 v/v mixture of acetone and DMSO and 10 mL of an aqueous mixture containing acetone, water, isopropyl alcohol, DMSO, Agri-Dex crop oil concentrate, and X-77 surfactant in a 48:39:10:1.5:1.5:0.02 v/v ratio to obtain ½×, ¼×, ⅛× and 1/16× rates of the high rate. Compound requirements are based upon a 12 mL application volume at a rate of 187 liters per hectare (L/ha). Formulated compounds were applied to the plant material with an overhead Mandel track sprayer equipped with 8002E nozzles calibrated to deliver 187 L/ha over an application area of 0.503 square meters at a spray height of 18 inches (43 cm) above the average plant canopy height. Control plants were sprayed in the same manner with the solvent blank.
(§3) The treated plants and control plants were placed in a greenhouse as described above and watered by subirrigation to prevent wash-off of the test compounds. After 21 dAYS, the condition of the test plants as compared with that of the untreated plants was determined visually and scored on a scale of 0 to 100 percent where 0 corresponds to no injury and 100 corresponds to complete kill and presented as indicated in Table A.
(§4) By applying the well-accepted probit analysis as described by J. Berkson in Journal of the American Statistical Society, 48, 565 (1953) and by D. Finney in “Probit Analysis” Cambridge University Press (1952), herbicidal injury of a specific compound at various rates can be used to calculate GR10, GR20, GR50, GR80 and GR90 values, which are defined as growth reduction factors that correspond to the effective dose of herbicide required to provide plant growth reduction (GR) of 10 percent, 20 percent, 50 percent, 80 percent and 90 percent, respectively. Probit analysis was applied to data collected from multiple dose rates of individual compounds utilizing the procedures explained in the following examples. The analysis of those dose rates is captured in the following tables.

PAPRH (common poppy) = type: in vivo, Papaver rhoeas; conditions: for Visual Growth Reduction (%) 21 Days After Application, PAPRH: PAPRH common poppy (Papaver rhoeas), post-emergent; for GR50, PAPRH: growth reduction of 50%; for GR50, PAPRH / GR80, PAPRH / GR90, PAPRH: probit analysis, 21 days; for GR80, PAPRH: growth reduction of 80%; for GR90, PAPRH: growth reduction of 90%
Method: as §1, §2, §3, §4

KCHSC (kochia) = type: in vivo, Kochia scoparia; conditions: for pest or weed control at 17.5 g/ha / pest or weed control at 35 g/ha / pest or weed control at 70 g/ha: Bassia scoparia, post-emergence, 504 h, KCHSC kochia (Kochia scoparia), post-emergent, read-out: Visual Growth Reduction (%) 21 Days After Application, KCHSC; for pest or weed control at 17.5 g/ha: 17.5 g ai/ha; for pest or weed control at 35 g/ha: 35 g ai/ha; for pest or weed control at 70 g/ha: 70 g ai/ha; for GR50, KCHSC: growth reduction of 50%; for GR50, KCHSC / GR80, KCHSC / GR90, KCHSC: probit analysis, 21 days; for GR80, KCHSC: growth reduction of 80%; for GR90, KCHSC: growth reduction of 90%
Method: as §1, §2, §3, §4

TRZSS = type: in vivo; conditions: crop; for Visual Growth Reduction (%) 21 Days After Application, TRZSS: TRZSS wheat (Triticum aestivum), post-emergent; for GR10, TRZSS / GR20, TRZSS: TRZSS wheat, probit analysis, 21 days; for GR10, TRZSS: growth reduction of 10%; for GR20, TRZSS: growth reduction of 20%
Method: as §1, §2, §3, §4

HORSS = type: in vivo; conditions: crop; for Visual Growth Reduction (%) 21 Days After Application, HORSS: HORSS barley (Hordeum vulgare), post-emergent; for GR10, HORSS / GR20, HORSS: HORSS barley, probit analysis, 21 days; for GR10, HORSS: growth reduction of 10%; for GR20, HORSS: growth reduction of 20%
Method: as §1, §2, §3, §4

BRSSS = type: in vivo; conditions: for Visual Growth Reduction (%) 21 Days After Application, BRSSS: BRSSS oil seed rape (Brassica napus), post-emergent; for GR50, BRSSS: growth reduction of 50%; for GR50, BRSSS / GR80, BRSSS / GR90, BRSSS: probit analysis, 21 days; for GR80, BRSSS: growth reduction of 80%; for GR90, BRSSS: growth reduction of 90%
Method: as §1, §2, §3, §4

POLCO (wild buckwheat) = type: in vivo, Polygonum convolvulus; conditions: for Visual Growth Reduction (%) 21 Days After Application, POLCO: POLCO wild buckwheat (Polygonum convolvulus), post-emergent; for GR50, POLCO: growth reduction of 50%; for GR50, POLCO / GR80, POLCO / GR90, POLCO: probit analysis, 21 days; for GR80, POLCO: growth reduction of 80%; for GR90, POLCO: growth reduction of 90%
Method: as §1, §2, §3, §4

SMILES | Visual Growth Reduction (%) 21 Days After Application, SASKR (SASKR (Russian thistle); 17.5 g ai/ha) | Visual Growth Reduction (%) 21 Days After Application, SASKR (SASKR (Russian thistle); 35 g ai/ha) | Visual Growth Reduction (%) 21 Days After Application, SASKR (SASKR (Russian thistle); 70 g ai/ha) | GR50, SASKR (SASKR (Russian thistle)) | GR80, SASKR (SASKR (Russian thistle)) | GR90, SASKR (SASKR (Russian thistle)) | Visual Growth Reduction (%) 21 Days After Application, PAPRH (PAPRH (common poppy); 17.5 g ai/ha) | Visual Growth Reduction (%) 21 Days After Application, PAPRH (PAPRH (common poppy); 35 g ai/ha) | Visual Growth Reduction (%) 21 Days After Application, PAPRH (PAPRH (common poppy); 70 g ai/ha) | GR50, PAPRH (PAPRH (common poppy)) | GR80, PAPRH (PAPRH (common poppy)) | GR90, PAPRH (PAPRH (common poppy)) | pest or weed control at 17.5 g/ha (KCHSC (kochia)) | pest or weed control at 35 g/ha (KCHSC (kochia)) | pest or weed control at 70 g/ha (KCHSC (kochia)) | GR50, KCHSC (KCHSC (kochia)) | GR80, KCHSC (KCHSC (kochia)) | GR90, KCHSC (KCHSC (kochia)) | Visual Growth Reduction (%) 21 Days After Application, TRZSS (TRZSS; 17.5 g ai/ha) | Visual Growth Reduction (%) 21 Days After Application, TRZSS (TRZSS; 35 g ai/ha) | other results
COC(=O)c1nc(-c2ccc(Br)nc2)c(F)c(N)c1Cl [Compound 22, methyl 4-amino-6′-bromo-5-chloro-3-fluoro-[2,3′-bipyridine]-6-carboxylate] | C (75-84) | C (75-84) | B (85-94) | 5 g ai/ha | 36 g ai/ha | 95 g ai/ha | A (95-100) | A (95-100) | A (95-100) | 1 g ai/ha | 1 g ai/ha | 1 g ai/ha | 95 to 100% | 95 to 100% | 95 to 100% | 3 g ai/ha | 8 g ai/ha | 14 g ai/ha | C (75-84) | B (85-94) | Visual Growth Reduction (%) 21 Days After Application, TRZSS (TRZSS; 70 g ai/ha): B (85-94); GR10, TRZSS (TRZSS): 1 g ai/ha; GR20, TRZSS (TRZSS): 1 g ai/ha; Visual Growth Reduction (%) 21 Days After Application, HORSS (HORSS; 17.5 g ai/ha): B (85-94); Visual Growth Reduction (%) 21 Days After Application, HORSS (HORSS; 35 g ai/ha): B (85-94); Visual Growth Reduction (%) 21 Days After Application, HORSS (HORSS; 70 g ai/ha): A (95-100); GR10, HORSS (HORSS): 1 g ai/ha; GR20, HORSS (HORSS): 1 g ai/ha; Visual Growth Reduction (%) 21 Days After Application, BRSSS (BRSSS; 17.5 g ai/ha): D (60-74); Visual Growth Reduction (%) 21 Days After Application, BRSSS (BRSSS; 35 g ai/ha): B (85-94); Visual Growth Reduction (%) 21 Days After Application, BRSSS (BRSSS; 70 g ai/ha): B (85-94); GR50, BRSSS (BRSSS): 4 g ai/ha; GR80, BRSSS (BRSSS): 20 g ai/ha; GR90, BRSSS (BRSSS): 46 g ai/ha; Visual Growth Reduction (%) 21 Days After Application, POLCO (POLCO (wild buckwheat); 17.5 g ai/ha): E (45-59); Visual Growth Reduction (%) 21 Days After Application, POLCO (POLCO (wild buckwheat); 35 g ai/ha): E (45-59); Visual Growth Reduction (%) 21 Days After Application, POLCO (POLCO (wild buckwheat); 70 g ai/ha): D (60-74); GR50, POLCO (POLCO (wild buckwheat)): 26 g ai/ha; GR80, POLCO (POLCO (wild buckwheat)): >140 g ai/ha; GR90, POLCO (POLCO (wild buckwheat)): >140 g ai/ha
Cc1c(-c2cc(N)c(Cl)c(C(=O)O)n2)ccc(Cl)c1Cl [Compound 28] | C (75-84) | B (85-94) | A (95-100) | 2 g ai/ha | 17 g ai/ha | 47 g ai/ha | G (0-29) | G (0-29) | G (0-29) | >140 g ai/ha | >140 g ai/ha | >140 g ai/ha | 75 to 84% | 75 to 84% | 95 to 100% | 3 g ai/ha | 21 g ai/ha | 54 g ai/ha | G (0-29) | F (30-44) | Visual Growth Reduction (%) 21 Days After Application, TRZSS (TRZSS; 70 g ai/ha): E (45-59); GR10, TRZSS (TRZSS): 16 g ai/ha; GR20, TRZSS (TRZSS): 25 g ai/ha; Visual Growth Reduction (%) 21 Days After Application, HORSS (HORSS; 17.5 g ai/ha): G (0-29); Visual Growth Reduction (%) 21 Days After Application, HORSS (HORSS; 35 g ai/ha): F (30-44); Visual Growth Reduction (%) 21 Days After Application, HORSS (HORSS; 70 g ai/ha): F (30-44); GR10, HORSS (HORSS): 3 g ai/ha; GR20, HORSS (HORSS): 13 g ai/ha; Visual Growth Reduction (%) 21 Days After Application, BRSSS (BRSSS; 17.5 g ai/ha): B (85-94); Visual Growth Reduction (%) 21 Days After Application, BRSSS (BRSSS; 35 g ai/ha): B (85-94); Visual Growth Reduction (%) 21 Days After Application, BRSSS (BRSSS; 70 g ai/ha): A (95-100); GR50, BRSSS (BRSSS): 1 g ai/ha; GR80, BRSSS (BRSSS): 5 g ai/ha; GR90, BRSSS (BRSSS): 18 g ai/ha; Visual Growth Reduction (%) 21 Days After Application, POLCO (POLCO (wild buckwheat); 17.5 g ai/ha): A (95-100); Visual Growth Reduction (%) 21 Days After Application, POLCO (POLCO (wild buckwheat); 35 g ai/ha): A (95-100); Visual Growth Reduction (%) 21 Days After Application, POLCO (POLCO (wild buckwheat); 70 g ai/ha): A (95-100); GR50, POLCO (POLCO (wild buckwheat)): 1 g ai/ha; GR80, POLCO (POLCO (wild buckwheat)): 1 g ai/ha; GR90, POLCO (POLCO (wild buckwheat)): 4 g ai/ha
